Results taken from ChEMBL document CHEMBL4118098, “Discovery of DS28120313 as a potent orally active hepcidin production inhibitor: Design and optimization of novel 4,6-disubstituted indazole derivatives” (Bioorg Med Chem Lett, 2017).

Tested on: HepG2
Assay: Inhibition of human recombinant BMP6-stimulated hepcidin mRNA expression in human HepG2 cells after 6 hrs by qRT-PCR analysis
Type: functional, cell-based
Details: HepG2, 6 h

Row | SMILES | IC50
1 | COC(=O)Nc1cc(-c2c(C(=O)O)n[nH]c2C)cc2[nH]ncc12 | > 10000 nM
2 | CC(=O)Nc1cc(-c2c(C3CC3)n[nH]c2C)cc2[nH]ncc12 | 190 nM
3 | CNC(=O)c1cc(-c2c(C3CC3)n[nH]c2C)cc2[nH]ncc12 | 2200 nM
4 | CNC(=O)c1n[nH]c(C)c1-c1cc(NC(=O)OC)c2cn[nH]c2c1 | 2000 nM
5 | Cc1[nH]nc(C2CC2)c1-c1ccc2c(-c3ccncc3)n[nH]c2c1 | 2600 nM
6 | Cc1[nH]nc(C2CC2)c1-c1ccc2c(-c3ccc[nH]3)n[nH]c2c1 | 3100 nM
7 | COC(=O)Nc1cc(-c2c(-c3ccccc3)n[nH]c2C)cc2[nH]ncc12 | 1100 nM
8 | COC(=O)N(C)c1cc(-c2c(C3CC3)n[nH]c2C)cc2[nH]ncc12 | 3000 nM
9 | CC(=O)Nc1n[nH]c2cc(-c3c(C4CC4)n[nH]c3C)ccc12 | 410 nM
10 | CCc1n[nH]c(C)c1-c1cc(NC(=O)OC)c2cn[nH]c2c1 | 180 nM
11 | Cc1[nH]nc(C2CC2)c1-c1cc(N)c2cn[nH]c2c1 | 2700 nM
12 | COCc1n[nH]c(C)c1-c1cc(NC(=O)OC)c2cn[nH]c2c1 | 3900 nM
13 | Cc1[nH]nc(C2CC2)c1-c1cc(NS(C)(=O)=O)c2cn[nH]c2c1 | 1200 nM
14 | Cc1[nH]nc(C2CC2)c1-c1cc(NC(=O)c2ccc(N3CCN(C)CC3)cc2)c2cn[nH]c2c1 | 1900 nM
15 | Cc1[nH]nc(C2CC2)c1-c1cc(NC(=O)C2CC2)c2cn[nH]c2c1 | 1000 nM
16 | COC(=O)Nc1cc(-c2c(-c3ccccn3)n[nH]c2C)cc2[nH]ncc12 | 320 nM
17 | Cc1[nH]nc(C2CC2)c1-c1ccc2c(-c3ccc(N4CCNCC4)nc3)n[nH]c2c1 | 170 nM
18 | COC(=O)Nc1cc(-c2c(C(C)C)n[nH]c2C)cc2[nH]ncc12 | 190 nM
19 | COC(=O)Nc1cc(-c2c(C(=O)OC)n[nH]c2C)cc2[nH]ncc12 | 130 nM
20 | Cc1[nH]nc(C2CC2)c1-c1ccc2c(-c3cccnc3)n[nH]c2c1 | 2300 nM
21 | CCOC(=O)Nc1cc(-c2c(C3CC3)n[nH]c2C)cc2[nH]ncc12 | 660 nM
22 | Cc1[nH]nc(C2CC2)c1-c1ccc2cn[nH]c2c1 | 4100 nM
23 | CNC(=O)Nc1cc(-c2c(C3CC3)n[nH]c2C)cc2[nH]ncc12 | 340 nM
24 | CCC(=O)Nc1cc(-c2c(C3CC3)n[nH]c2C)cc2[nH]ncc12 | 450 nM
25 | COC(=O)Nc1cc(-c2c(C)n[nH]c2C)cc2[nH]ncc12 | 150 nM
